From BindingDB's records for doi:10.1016/s0960-894x(01)00543-1 (Harvard Medical School, 2001)

Experiment: Binding affinity towards Opioid receptor delta 1 in guinea pig brain membranes using [3H]naltrindole as radioligand

Structure (SMILES) | Ki
Oc1ccc2c(c1)C[C@@H]1[C@@H]3CCCC[C@]23CCN1C/C=C/I | 27 nM
Oc1ccc2c(c1)C[C@@H]1[C@@H]3CCCCC23CCN1CCC(O)c1ccco1 (stereo partly drawn) [1-(2-furyl)-3-[5-hydroxy-(1R,9R,10R)-17-azatetracyclo[7.5.3.01,10.02,7]heptadeca-2(7),3,5-trien-17-yl]-1-propanol] | 29 nM
O=C(CCN1CCC23CCCC[C@H]2[C@H]1Cc1cc(O)ccc13)c1ccco1 [1-(2-furyl)-3-[5-hydroxy-(1R,9R,10R)-17-azatetracyclo[7.5.3.01,10.02,7]heptadeca-2(7),3,5-trien-17-yl]-1-propanone] | 42 nM
N#CCCN1CCC23CCCC[C@H]2[C@H]1Cc1cc(O)ccc13 [2-[5-hydroxy-(1R,9R,10R)-17-azatetracyclo[7.5.3.01,10.02,7]heptadeca-2(7),3,5-trien-17-yl]ethyl cyanide] | 2.6 nM
O=C(CCN1CCC23CCCC[C@H]2[C@H]1Cc1cc(O)ccc13)c1cccs1 [3-[5-hydroxy-(1R,9R,10R)-17-azatetracyclo[7.5.3.01,10.02,7]heptadeca-2(7),3,5-trien-17-yl]-1-(2-thienyl)-1-propanone] | 10 nM
O=C(CCN1CCC23CCCC[C@H]2[C@H]1Cc1cc(O)ccc13)c1ccccc1 [3-[5-hydroxy-(1R,9R,10R)-17-azatetracyclo[7.5.3.01,10.02,7]heptadeca-2(7),3,5-trien-17-yl]-1-phenyl-1-propanone] | 23 nM
N#CCCCN1CCC23CCCC[C@H]2[C@H]1Cc1cc(O)ccc13 [3-[5-hydroxy-(1R,9R,10R)-17-azatetracyclo[7.5.3.01,10.02,7]heptadeca-2(7),3,5-trien-17-yl]propyl cyanide] | 3.1 nM
CCOCCN1CCC23CCCC[C@H]2[C@H]1Cc1cc(O)ccc13 [17-(2-ethoxyethyl)-(1R,9R,10R)-17-azatetracyclo[7.5.3.01,10.02,7]heptadeca-2(7),3,5-trien-5-ol] | 5.6 nM
Oc1ccc2c(c1)C[C@@H]1[C@@H]3CCCCC23CCN1CCC(F)(F)F [17-(3,3,3-trifluoropropyl)-(1R,9R,10R)-17-azatetracyclo[7.5.3.01,10.02,7]heptadeca-2(7),3,5-trien-5-ol] | 27 nM
Oc1ccc2c(c1)C[C@@H]1[C@@H]3CCCCC23CCN1CCCF [17-(3-fluoropropyl)-(1R,9R,10R)-17-azatetracyclo[7.5.3.01,10.02,7]heptadeca-2(7),3,5-trien-5-ol] | 0.85 nM
Oc1ccc2c(c1)C[C@@H]1[C@@H]3CCCCC23CCN1CC1CCCCC1 [17-(N-cyclohexylmethyl)-(1R,9R,10R)-17-azatetracyclo[7.5.3.01,10.02,7]heptadeca-2(7),3,5-trien-5-ol] | 69 nM
C=CCN1CCC23CCCC[C@H]2[C@H]1Cc1cc(O)ccc13 [17-allyl-(1R,9R,10R)-17-azatetracyclo[7.5.3.01,10.02,7]heptadeca-2(7),3,5-trien-5-ol] | 4.1 nM
Oc1ccc2c(c1)C[C@@H]1[C@@H]3CCCCC23CCN1Cc1ccccc1 [17-benzyl-(1R,9R,10R)-17-azatetracyclo[7.5.3.01,10.02,7]heptadeca-2(7),3,5-trien-5-ol] | 420 nM
Oc1ccc2c(c1)C[C@@H]1[C@@H]3CCCCC23CCN1CC1CCCC1 [17-cyclopentylmethyl-17-azatetracyclo[7.5.3.01,10.02,7]heptadeca-2(7),3,5-trien-5-ol] | 6.9 nM
Oc1ccc2c(c1)C[C@@H]1[C@@H]3CCCCC23CCN1CCc1ccccc1 [17-phenethyl-(1R,9R,10R)-17-azatetracyclo[7.5.3.01,10.02,7]heptadeca-2(7),3,5-trien-5-ol] | 3.1 nM
CC(C)CN1CCC23CCCC[C@H]2[C@H]1Cc1cc(O)ccc13 [MCL-108] | 5.6 nM
COCCN1CCC23CCCC[C@H]2[C@H]1Cc1cc(O)ccc13 [MCL-110] | 0.54 nM
Oc1ccc2c(c1)C[C@@H]1[C@@H]3CCCCC23CCN1Cc1ccco1 [MCL-119] | 8.5 nM
Oc1ccc2c(c1)C[C@@H]1[C@@H]3CCCCC23CCN1CCC(O)c1ccccc1 (stereo partly specified) [MCL-121] | 130 nM
Oc1ccc2c(c1)C[C@@H]1[C@@H]3CCCCC23CCN1CCC(O)c1cccs1 (stereo partly specified) [MCL-122] | 110 nM
Oc1ccc2c(c1)C[C@@H]1[C@@H]3CCCCC23CCN1CCOc1ccccc1 [MCL-127] | 33 nM
